Where only a bound is given, the exact number is not on record here.

The test system of assay [1] is Glo-Response ARE-luc2P HEK293 cell line. Briefly: ARE luciferase reporter cell-based assay.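 Note: luciferase signal tracks Nrf2 activation of the ARE once compounds disrupt KEAP1-Nrf2 binding, read with One-Glo reagent, DMSO serving as low control.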 As to conditions: Homo sapiens, HEK293, 24 h, average of results obtained.
In assay [2] the target is Kelch domain of human KEAP1 (321-624 aa) (Homo sapiens (Human), UniProt Q14145). The experiment in a line: KEAP1 KELCH ThermoFluor binding assay.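 Note: Ligand-induced melting temperature shift of E. coli-expressed KEAP1 Kelch protein, Kd estimated from concentration-response curves of ΔTm.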 The following applies: KEAP Kelch […], 1,8-ANS, pH 7.0, average of results obtained, read-out: Tf Kd.
Chain of Kelch domain of human KEAP1 (321-624 aa) (Q14145 321-624): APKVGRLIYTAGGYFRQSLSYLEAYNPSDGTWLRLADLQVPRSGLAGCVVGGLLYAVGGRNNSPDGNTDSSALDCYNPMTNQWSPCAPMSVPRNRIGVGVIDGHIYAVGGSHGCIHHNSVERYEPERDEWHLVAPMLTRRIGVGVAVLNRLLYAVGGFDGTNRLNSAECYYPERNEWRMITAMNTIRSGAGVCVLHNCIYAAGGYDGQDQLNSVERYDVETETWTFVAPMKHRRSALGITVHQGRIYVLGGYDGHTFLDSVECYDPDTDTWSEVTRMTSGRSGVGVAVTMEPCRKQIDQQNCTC

What is called EC50 is the concentration that produces a half-maximal response. The term Kd denotes the free concentration of one partner at which half of the binding sites on the other are occupied at equilibrium, for simple one-to-one binding. On to `Cc1ccc([C@@H](CC(=O)O)c2ccn3c(C(F)(F)F)nnc3c2C)cc1CN1C[C@@H]2CCCCN2c2ncccc2S1(=O)=O` (single isomer, unassigned) [Example 291, (*R)-3-(3-(((*S)-5,5-Dioxido-7,7a,8,9,10,11-hexahydro-6H-dipyrido[2,1-d:2′,3′-][1,2,5]thiadiazepin-6-yl)methyl)-4-methylphenyl)-3-(8-methyl-3-(trifluoromethyl)-[1,2,4]triazolo[4,3-a]pyridin-7-yl)propanoic Acid], for which the EC50 in assay [1] was found to be 86.8 nM. Besides, the Kd in assay [2] is below 1 nM.
On to `Cc1ccc([C@H](c2ccn3c(C(F)(F)F)nnc3c2C)C(C)(C)C(=O)O)cc1CN1CC2(CCOCC2)Oc2nc(OCCC3CCNCC3)c(C)cc2S1(=O)=O` (single isomer, unassigned) [Example 369, (*R)-2,2-Dimethyl-3-(4-methyl-3-(8′-methyl-1′,1′-dioxido-7′-(2-(piperidin-4-yl)ethoxy)-2,3,5,6-tetrahydrospiro[pyran-4,4′-pyrido[2,3-b][1,4,5]oxathiazepin]-2′(3′H)-yl)methyl)-4-methylphenyl)-2,2-dimethyl-3-(8-methyl-3-(trifluoromethyl)-[1,2,4]triazolo[4,3-a][pyridine-7-yl)propanoic Acid], for which the EC50 in assay [1] stood at 176 nM. Further, the Kd in assay [2] is below 1 nM.

These data come from US10947252B2, “Inhibitors of KEAP1-Nrf2 protein-protein interaction” (Janssen Pharmaceutica NV, priority 2018, dated 2021).
